In US9284325B2, “Spectinamides as anti-tuberculosis agents” (UNIVERSITY OF TENNESSEE RESEARCH FOUNDATION, priority 2009, dated 2016) one finds MIC data, which are given here for eight compounds.

In assay [1] the test system is Burkholderia cepacia ATCC 25416. Kind of assay: MIC determination by microbroth dilution. The format is cell-based. The note with it: ATCC25416, read-out: MIC B. cepcia. In general terms: In broth dilution the organism is exposed to a series of concentrations in liquid medium.
The subject of assay [2] is Strep. pyogenes ATCC 700294. Description: MIC determination by microbroth dilution. The format is cell-based, Streptococcus pyogenes. Particulars: Streptococcus pyogenes, ATCC700294, read-out: MIC S. pyogenes.
For assay [3], the system named is Strenotrophomonas maltophilia ATCC 13637. Kind of assay: MIC determination by microbroth dilution. The format is cell-based.
The next assay concerns E. coli K12. Kind of assay: MIC determination by microbroth dilution. Type of assay: cell-based, Escherichia coli. Particulars: Escherichia coli, K12.
In assay [4] the test system is Proteus vulgaris ATCC 33420. Kind of assay: MIC determination by microbroth dilution. Type of assay: cell-based. The note with it: ATCC33420.
In the next assay the test system is E. faecalis ATCC 33186. Kind of assay: MIC determination by microbroth dilution. The format is cell-based, Enterococcus faecalis. The note with it: Enterococcus faecalis, ATCC33186.
Assay [5] concerns Strep. pneumoniae DAW27 or strain R6. Kind of assay: MIC determination by microbroth dilution. The format is cell-based, Streptococcus pneumoniae. Particulars: Streptococcus pneumoniae; Strep. pneumoniae DAW27 or strain R6 (for 1443-1544); read-out: MIC S. pneumoniae.
A further assay deals with E. coli K12 ΔtolC. Description: microbe, parasite or virus in culture. The format is cell-based. The note with it: Escherichia coli, read-out: MIC E. coli K12 ΔtolC.
The test system of another assay is P. aeruginosa PAO1. Description: MIC determination by microbroth dilution. The format is cell-based, Pseudomonas aeruginosa. Particulars: Pseudomonas aeruginosa.
The test system of assay [6] is Klebsiella pneumoniae ATCC 33495. Kind of assay: MIC determination by microbroth dilution. The format is cell-based. Particulars: ATCC33495.
In a further assay the test system is M. tuberculosis H37Rv. Kind of assay: MIC determination by microbroth dilution, anti-tuberculosis activity. Type of assay: cell-based, Mycobacterium tuberculosis. The note with it: Mycobacterium tuberculosis, H37RV, 168 h; read-out: MIC.
Assay [7] concerns S. aureus 8325 or strain ATCC 29213. Kind of assay: MIC determination by microbroth dilution. The note with it: Staphylococcus aureus, ATCC29213; S. aureus 8325 or strain ATCC 29213 (for 1471-1544). Type of assay: cell-based, Staphylococcus aureus.
Assay [8] concerns Proteus mirabilis ATCC 25933. Kind of assay: MIC determination by microbroth dilution. Particulars: ATCC25933. Type of assay: cell-based.
In assay [9] the test system is Acinetobacter baumannii ATCC 19606. Kind of assay: MIC determination by microbroth dilution. The format is cell-based. Particulars: ATCC19606.
The test system of the next assay is B. anthracis Sterne 34F2. Description: microbe, parasite or virus in culture. The format is cell-based, Bacillus anthracis. Particulars: Bacillus anthracis, STERNE34F2, read-out: MIC B. anthracis 34F2.

Converted amounts (≈) assume the structure as drawn. Where a name gives a salt, the structure may show the parent alone.

Consider `CN[C@@H]1[C@H](O)[C@H](NC)C2O[C@]3(O)C(OC2[C@H]1O)O[C@H](C)C[C@H]3NC(=O)Cc1csc(Nc2ccc(F)cc2)n1` (stereo partly drawn) [Compound 1538, 3′-Dihydro-3′-deoxy-4(R)-(2-((4-fluorophenyl)amino)thiazol-4-yl)acetylamino spectinomycin tribromide], for which the MIC in [1] was more than 200 µg/mL; in assay [2], 6.25 µg/mL; in assay [3] it was more than 200 µg/mL; with E. coli K12, more than 200 µg/mL; in assay [4], more than 200 µg/mL; against E. faecalis ATCC 33186, 25 µg/mL. The MIC in assay [5] was 3.1 µg/mL; in the assay with E. coli K12 ΔtolC it was 25 µg/mL; against P. aeruginosa PAO1 it was 200 µg/mL; in [6], more than 200 µg/mL; with M. tuberculosis H37Rv, 6.25 µg/mL; in [7], 100 µg/mL. The MIC (in assay [8]; in assay [9]; in the assay with B. anthracis Sterne 34F2) was more than 200 µg/mL each time.

Turning to `CN[C@@H]1[C@H](O)[C@H](NC)C2O[C@]3(O)C(OC2[C@H]1O)O[C@H](C)C[C@H]3NC(=O)Cc1ccc(-c2ccc(Cl)cc2)cn1` (stereo partly drawn) [Compound 1535, 3′-Dihydro-3′-deoxy-4(R)-(5-(4-chlorophenyl)pyridin-2-yl)acetylamino spectinomycin trihydrobromide], the MIC was more than 200 µg/mL in [1]; 1.6 µg/mL in [2]; more than 200 µg/mL in assay [3]; 200 µg/mL against E. coli K12; more than 200 µg/mL in assay [4]; 3.1 µg/mL against E. faecalis ATCC 33186. For the same compound, the MIC was 0.8 µg/mL in assay [5]; less than 6.25 µg/mL with E. coli K12 ΔtolC; 100 µg/mL against P. aeruginosa PAO1; more than 200 µg/mL in assay [6]; 3.12 µg/mL in the assay on M. tuberculosis H37Rv; 50 µg/mL in assay [7]. Also, the MIC (in assay [8]; in assay [9]; with B. anthracis Sterne 34F2) was more than 200 µg/mL in each case.

Consider `CN[C@@H]1[C@H](O)[C@H](NC)C2O[C@]3(O)C(OC2[C@H]1O)O[C@H](C)C[C@H]3NC(=O)Cc1csc(Nc2ccccc2)n1` (stereo partly drawn) [Compound 1520, 3′-Dihydro-3′-deoxy-4(R)-(2-(phenylamino)thiazol-4-yl)acetylamino spectinomycin trihydrobromide], for which the MIC in [1] was more than 200 µg/mL; in assay [2], 3.1 µg/mL; in [3], more than 200 µg/mL; in the assay on E. coli K12, more than 200 µg/mL; in [4], more than 200 µg/mL; against E. faecalis ATCC 33186 it was 100 µg/mL. Moreover, the MIC in [5] is 3.1 µg/mL; in the assay with E. coli K12 ΔtolC, 25 µg/mL; in the assay with P. aeruginosa PAO1, more than 200 µg/mL; in assay [6], more than 200 µg/mL; with M. tuberculosis H37Rv, 6.25 µg/mL; in [7], 100 µg/mL. Moreover, the MIC (in [8]; in assay [9]; with B. anthracis Sterne 34F2) was more than 200 µg/mL in each case.

Turning to `CN[C@@H]1[C@H](O)[C@H](NC)C2O[C@]3(O)C(OC2[C@H]1O)O[C@H](C)C[C@H]3NC(=O)Cc1csc(-c2ccccc2)n1` (stereo partly drawn) [Compound 1517, 3′-Dihydro-3′-deoxy-4(R)-(2-phenylthiazol-4-yl)acetylamino spectinomycin trihydrobromide], the MIC in assay [1] was more than 200 µg/mL; in assay [2], 6.25 µg/mL; in assay [3], more than 200 µg/mL; against E. coli K12, more than 200 µg/mL; in assay [4], more than 200 µg/mL; in the assay with E. faecalis ATCC 33186, 100 µg/mL. The MIC in assay [5] is 6.25 µg/mL; in the assay on E. coli K12 ΔtolC, 200 µg/mL; with P. aeruginosa PAO1, more than 200 µg/mL; in assay [6], more than 200 µg/mL; in the assay with M. tuberculosis H37Rv, 50 µg/mL; in [7], 200 µg/mL. Further, the MIC (in assay [8]; in [9]; in the assay with B. anthracis Sterne 34F2) was more than 200 µg/mL throughout.

As for `CN[C@@H]1[C@H](O)[C@H](NC)C2O[C@]3(O)C(OC2[C@H]1O)O[C@H](C)C[C@H]3NC(=O)CCc1ccccn1` (stereo partly drawn) [Compound 1518, 3′-Dihydro-3′-deoxy-4(R)-(pyridin-2-yl)propanoylamino spectinomycin trihydrobromide], the MIC in [1] is more than 200 µg/mL; in [2] it was 6.25 µg/mL; in [3] it was more than 200 µg/mL; against E. coli K12 it was more than 200 µg/mL; in assay [4], more than 200 µg/mL; against E. faecalis ATCC 33186, more than 200 µg/mL. Besides, the MIC is 12.5 µg/mL in [5]; 50 µg/mL in the assay on E. coli K12 ΔtolC; more than 200 µg/mL against P. aeruginosa PAO1; more than 200 µg/mL in assay [6]; 50 µg/mL with M. tuberculosis H37Rv; 200 µg/mL in [7]. The MIC (in assay [8]; in assay [9]; in the assay with B. anthracis Sterne 34F2) was more than 200 µg/mL throughout.

In the case of `CN[C@@H]1[C@H](O)[C@H](NC)C2O[C@]3(O)C(OC2[C@H]1O)O[C@H](C)C[C@H]3NC(=O)Cc1ccc(C)cc1` (stereo partly drawn) [Compound 1399, 3′-Dihydro-3′-deoxy-4(R)-p-tolylacetylamino spectinomycin Dihydrochloride], the MIC is more than 200 µg/mL in assay [1]; 25 µg/mL in assay [2]; more than 200 µg/mL in assay [3]; more than 200 µg/mL with E. coli K12; more than 200 µg/mL in assay [4]; 200 µg/mL in the assay on E. faecalis ATCC 33186. The MIC was 25 µg/mL in assay [5]; 100 µg/mL with E. coli K12 ΔtolC; 100 µg/mL against P. aeruginosa PAO1; more than 200 µg/mL in assay [6]; 6.1 µg/mL with M. tuberculosis H37Rv; 50 µg/mL in assay [7]. Also, the MIC in assay [8] is more than 200 µg/mL; in [9], more than 200 µg/mL; in the assay with B. anthracis Sterne 34F2, 100 µg/mL.

With `CN[C@@H]1[C@H](O)[C@H](NC)C2O[C@]3(O)C(OC2[C@H]1O)O[C@H](C)C[C@H]3NC(=O)C(c1ccccc1)c1ccccc1` (stereo partly drawn) [Compound 1514, 3′-Dihydro-3′-deoxy-4(R)-(2,2-diphenyl)acetylamino spectinomycin dihydrochloride], the MIC (in assay [1]; in [2]; in assay [3]; with E. coli K12; in [4]; in the assay on E. faecalis ATCC 33186) was more than 200 µg/mL throughout. Moreover, the MIC (in assay [5]; in the assay on E. coli K12 ΔtolC; against P. aeruginosa PAO1; in [6]; with M. tuberculosis H37Rv; in [7]) was more than 200 µg/mL in each case. The MIC (in assay [8]; in [9]; with B. anthracis Sterne 34F2) was more than 200 µg/mL each time.

On to `CN[C@@H]1[C@H](O)[C@H](NC)C2O[C@]3(O)C(OC2[C@H]1O)O[C@H](C)C[C@H]3NC(=O)Cc1nccs1` (stereo partly drawn) [Compound 1489, 3′-Dihydro-3′-deoxy-4(R)-(thiazol-2-yl)acetylamino spectinomycin tetradrobromide], for which the MIC in assay [1] is more than 200 µg/mL; in assay [2], 12.5 µg/mL (≈ 27.3 µM); in assay [3], more than 200 µg/mL; in the assay with E. coli K12 it was 200 µg/mL (≈ 436 µM); in assay [4] it was more than 200 µg/mL; with E. faecalis ATCC 33186, 100 µg/mL (≈ 218 µM). The MIC is 12.5 µg/mL (≈ 27.3 µM) in assay [5]; 50 µg/mL (≈ 109 µM) in the assay on E. coli K12 ΔtolC; more than 200 µg/mL in the assay with P. aeruginosa PAO1; more than 200 µg/mL in assay [6]; 6.25 µg/mL (≈ 13.6 µM) in the assay with M. tuberculosis H37Rv; 100 µg/mL (≈ 218 µM) in assay [7]. The MIC (in assay [8]; in assay [9]; in the assay with B. anthracis Sterne 34F2) was more than 200 µg/mL in each case.
